# Reference: patent US20090069300A1, “ISOQUINOLINYL AND ISOINDOLINYL DERIVATIVES AS HISTAMINE-3 ANTAGONISTS” (Wyeth, priority 2007, published 2009)
# Where a name gives a salt, the structure may show the parent alone.
# Molecular target: T1, Human Histamine H3 Receptor (Homo sapiens, UniProt Q9Y5N1)
# T1 construct: expressed in transfected cells; host or cells: HEK293T (stably transfected; membranes prepared from the cells)
# Experiment: Methyl histamine binding in human histamine H3 receptor cell line
# Conditions: not given
# Description: Evaluation of Methyl Histamine Binding in Human Histamine H3 Receptor Cell Line
# The affinity of test compounds for the histamine 3 (H3) receptor is evaluated in the following manner. […] Cells are scraped from the plate, transferred to centrifuge tubes, washed one time in PBS by centrifugation in a Sorvall RT7 Plus centrifuge (2000 rpm 10 minutes, 4° C.). The resulting pellets are stored at −80° C. until ready for use. Cells are re-suspended in buffer (50 mM Tris pH=7.5) and placed in a Dounce homogenizer, douncing ten times to homogenize cells. The homogenate is spun down by centrifugation (Sorvall RT7 Plus, 1800 rpm 10 minutes, 4° C.). The supernatant is placed in a Corex tube and spun down by centrifugation (Sorvall RC 5c Plus, 17,000 rpm 20 minutes, 4° C.). The pellet is resuspended in buffer (50 mM Tris, pH 7.5). Protein concentration (ug/ul) is determined using the Micro-BCA Protein Determination. The binding assay is set up in a 96 well microtiter plate in a total volume of 250 uL. Non-specific binding is determined in the presence of 10 uM clobenpropit. The final radioligand concentration is 1 nM. The test compound is serially diluted using the Beckman Biomek2000 to a final approximate range of 100 uM to 100 pM. Membranes are suspended in buffer, homogenized in 2 bursts of ten seconds using a Vitris mechanical homogenizer set at power setting 5. Ten μg of membranes are added to each well. Following a one hour incubation at 30° C., the reaction is terminated by the addition of ice cold buffer and rapid filtration with a Packard Filtermate Harvester through a GF/B filter pre-soaked with 1% PEI for one hour. The plate is dried for one hour at 37° C. and 60 μL Microscint Scintillant is added to each well. The CPM per well is measured on a Packard Top Count NXT. Ki values are determined in nM. […] CPM values are expressed as % specific binding and plotted vs compound concentration. A curve is fitted using a four-parameter logistic fit and the IC50 value is determined. The Ki is calculated from this using the Cheng-Prusoff equation: […]=IC50/1+(L/Kd) where L=concentration of free radioligand used in the assay, and Kd is the dissociation constant of the radioligand for the receptor. L is determined for each experiment by counting an aliquot of the diluted radioligand (corresponding to that added to each well) and the Kd has previously been determined under identical conditions for this cell line/radioligand.
# T1 sequence (Q9Y5N1 whole entry): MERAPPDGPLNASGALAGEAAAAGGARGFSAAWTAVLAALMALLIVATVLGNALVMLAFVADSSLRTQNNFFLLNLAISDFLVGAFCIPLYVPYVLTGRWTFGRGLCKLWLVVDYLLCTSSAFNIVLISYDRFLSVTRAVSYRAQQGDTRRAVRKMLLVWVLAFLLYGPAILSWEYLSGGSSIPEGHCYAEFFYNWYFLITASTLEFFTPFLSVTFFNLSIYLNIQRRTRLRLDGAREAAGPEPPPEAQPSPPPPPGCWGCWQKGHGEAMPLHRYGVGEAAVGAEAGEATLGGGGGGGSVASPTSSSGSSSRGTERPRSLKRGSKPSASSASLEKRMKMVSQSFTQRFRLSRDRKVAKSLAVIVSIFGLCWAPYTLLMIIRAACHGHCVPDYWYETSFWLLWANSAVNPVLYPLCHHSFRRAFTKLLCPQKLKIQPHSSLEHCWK
row,SMILES,Ki [nM]
1,"O=C(NCCCl)c1ccc(-c2ccc3c(c2)CCN(CCN2CCCC2)C3=O)cc1 [Example 123, N-(2-chloroethyl)-4-[1-oxo-2-(2-pyrrolidin-1-ylethyl)-1,2,3,4-tetrahydroisoquinolin-6-yl]benzamide]",< 10

# Same assay, conditions: read-out: H3 Binding Ki
row,SMILES,Ki [nM]
1,"CNC(=O)c1ccc(-c2ccc3c(c2)C(=O)N(CCN2CCC[C@H]2C)CC3)cc1 [Example 83, N-methyl-4-(2-{2-[(2R)-2-methylpyrrolidin-1-yl]ethyl}-1-oxo-1,2,3,4-tetrahydroiso-quinolin-7-yl)benzamide]",< 10
2,"CCNC(=O)c1ccc(-c2ccc3c(c2)C(=O)N(CCN2CCC[C@H]2C)CC3)cc1 [Example 84, N-ethyl-4-(2-{2-[(2R)-2-methylpyrrolidin-1-yl]ethyl}-1-oxo-1,2,3,4-tetrahydroiso-quinolin-7-yl)benzamide]",< 10
3,"CC(C)NC(=O)c1ccc(-c2ccc3c(c2)C(=O)N(CCN2CCC[C@H]2C)CC3)cc1 [Example 85, N-isopropyl-4-(2-{2-[(2R)-2-methylpyrrolidin-1-yl]ethyl}-1-oxo-1,2,3,4-tetrahydroiso-quinolin-7-yl)benzamide]",< 10
4,"C[C@@H]1CCCN1CCN1CCc2ccc(-c3ccc(C(=O)N4CCCC4)cc3)cc2C1=O [Example 86, 2-{2-[(2R)-2-methylpyrrolidin-1-yl]ethyl}-7-[4-(pyrrolidin-1-ylcarbonyl)phenyl]-3,4-dihydroisoquinolin-1(2H)-one]",< 10
5,"NC(=O)c1ccc(Oc2ccc3c(c2)CCN(CCN2CCCC2)C3=O)cc1 [Example 91, 4-{[1-oxo-2-(2-pyrrolidin-1-ylethyl)-1,2,3,4-tetrahydroisoquinolin-6-yl]oxy}benzamide]",10.1 to 25
6,"CN(C)C(=O)c1ccc(Oc2ccc3c(c2)CCN(CCN2CCCC2)C3=O)cc1 [Example 95, N,N-dimethyl-4-{[1-oxo-2-(2-pyrrolidin-1-ylethyl)-1,2,3,4-tetrahydroisoquinolin-6-yl]oxy}benzamide]",25.1 to 50
7,"CCN(CC)C(=O)c1ccc(Oc2ccc3c(c2)CCN(CCN2CCCC2)C3=O)cc1 [Example 96, N,N-diethyl-4-{[1-oxo-2-(2-pyrrolidin-1-ylethyl)-1,2,3,4-tetrahydroisoquinolin-6-yl]oxy}benzamide]",25.1 to 50
8,"O=C(c1ccc(Oc2ccc3c(c2)CCN(CCN2CCCC2)C3=O)cc1)N1CCCC1 [Example 98, 6-[4-(pyrrolidin-1-ylcarbonyl)phenoxy]-2-(2-pyrrolidin-1-ylethyl)-3,4-dihydroiso-quinolin-1(2H)-one]",< 10
9,"CNC(=O)c1ccc(Oc2ccc3c(c2)CCN(CCN2CCCC2)C3=O)nc1 [Example 101, N-Methyl-6-(1-oxo-2-(2-(pyrrolidin-1-yl)ethyl)-1,2,3,4-tetrahydro-isoquinolin-6-yloxy)nicotinamide hydrochloride]",25.1 to 50
10,"CON(C)C(=O)c1ccc(-c2ccc3c(c2)CCN(CCN2CCCC2)C3=O)cc1 [Example 102, N-methoxy-N-methyl-4-(1-oxo-2-(2-(pyrrolidin-1-yl)ethyl)-1,2,3,4-tetrahydroisoqui-nolin-6-yl)benzamide]",< 10
11,"O=C1c2ccc(-n3cnc4ccccc43)cc2CCN1CCN1CCCC1 [Example 108, 6-(1H-benzimidazol-1-yl)-2-(2-pyrrolidin-1-ylethyl)-3,4-dihydroisoquinolin-1(2H)-one Fumarate Salt]",< 10
12,"O=C1c2ccc(Cn3cnc4ccccc43)cc2CN1CCN1CCCC1 [Example 112, 5-(1H-benzimidazol-1-ylmethyl)-2-(2-pyrrolidin-1-ylethyl)iso-indolin-1-one]",25.1 to 50
13,"CNC(=O)c1ccc(-c2ccc3c(c2)CN(CCN2CCC[C@H]2C)C3=O)cc1 [Example 118, N-methyl-4-(2-{2-[(2R)-2-methylpyrrolidin-1-yl]ethyl}-1-oxo-2,3-dihydro-1H-isoindol-5-yl)benzamide]",50.1 to 100
14,"C[C@@H]1CCCN1CCN1CCc2cc(OCc3ccc(C#N)cc3)ccc2C1=O [Example 120, (R)-4-((2-(2-(2-Methylpyrrolidin-1-yl)ethyl)-1-oxo-1,2,3,4-tetra-hydroisoquinolin-6-yloxy)methyl)benzonitrile hydrochloride]",< 10
15,"O=C(NCc1cccs1)c1ccc(-c2ccc3c(c2)CCN(CCN2CCCC2)C3=O)cc1 [Example 121, 4-[1-oxo-2-(2-pyrrolidin-1-ylethyl)-1,2,3,4-tetrahydroisoquinolin-6-yl]-N-(2-thienylmethyl)benzamide]",< 10
16,"O=C(c1ccc(-c2ccc3c(c2)CCN(CCN2CCCC2)C3=O)cc1)N1CCOCC1 [Example 122, 6-[4-(morpholin-4-ylcarbonyl)phenyl]-2-(2-pyrrolidin-1-ylethyl)-3,4-dihydroisoquinolin-1(2H)-one]",< 10
17,"CCN(C)C(=O)c1ccc(-c2ccc3c(c2)CCN(CCN2CCCC2)C3=O)cc1 [Example 124, N-ethyl-N-methyl-4-[1-oxo-2-(2-pyrrolidin-1-ylethyl)-1,2,3,4-tetrahydroisoquinolin-6-yl]benzamide]",< 10
18,"O=C(NCc1ccco1)c1ccc(-c2ccc3c(c2)CCN(CCN2CCCC2)C3=O)cc1 [Example 125, N-(2-furylmethyl)-4-[1-oxo-2-(2-pyrrolidin-1-ylethyl)-1,2,3,4-tetrahydroisoquinolin-6-yl]benzamide]",< 10
19,"COC[C@H](C)NC(=O)c1ccc(-c2ccc3c(c2)CCN(CCN2CCCC2)C3=O)cc1 [Example 126, N-[(1S)-2-methoxy-1-methylethyl]-4-[1-oxo-2-(2-pyrrolidin-1-ylethyl)-1,2,3,4-tetrahydroisoquinolin-6-yl]benzamide]",< 10
20,"COC1CCN(C(=O)c2ccc(-c3ccc4c(c3)CCN(CCN3CCCC3)C4=O)cc2)C1 (centres unmarked) [Example 127, 6-{4-[(3-methoxypyrrolidin-1-yl)carbonyl]phenyl}-2-(2-pyrrolidin-1-ylethyl)-3,4-dihydroisoquinolin-1(2H)-one]",< 10
21,"COC[C@@H]1CCCN1C(=O)c1ccc(-c2ccc3c(c2)CCN(CCN2CCCC2)C3=O)cc1 [Example 128, 6-(4-{[(2S)-2-(methoxymethyl)pyrrolidin-1-yl]carbonyl}phenyl)-2-(2-pyrrolidin-1-ylethyl)-3,4-dihydroisoquinolin-1(2H)-one]",< 10
22,"O=C(Nc1nccs1)c1ccc(-c2ccc3c(c2)CCN(CCN2CCCC2)C3=O)cc1 [Example 130, 4-[1-oxo-2-(2-pyrrolidin-1-ylethyl)-1,2,3,4-tetrahydroisoquinolin-6-yl]-N-1,3-thiazol-2-ylbenzamide]",< 10
23,"O=C(c1cc(-c2ccc3c(c2)CCN(CCN2CCCC2)C3=O)ccc1F)N1CCCC1 [Example 131, 6-[4-fluoro-3-(pyrrolidin-1-ylcarbonyl)phenyl]-2-(2-pyrrolidin-1-ylethyl)-3,4-dihydroisoquinolin-1-(2H)-one]",< 10
24,"CN(C)C(=O)c1cc(-c2ccc3c(c2)CCN(CCN2CCCC2)C3=O)ccc1F [Example 132, 2-fluoro-N,N-dimethyl-5-[1-oxo-2-(2-pyrrolidin-1-ylethyl)-1,2,3,4-tetrahydroisoquinolin-6-yl]benzamide]",< 10
25,"O=C(c1ccc(-c2ccc3c(c2)CCN(CCN2CCCC2)C3=O)cc1Cl)N1CCCC1 [Example 134, 6-[3-chloro-4-(pyrrolidin-1-ylcarbonyl)phenyl]-2-(2-pyrrolidin-1-ylethyl)-3,4-dihydroisoquinolin-1(2H)-one]",< 10
